In one data set the test system is interferon. The following applies: background, cited from earlier work.
For data set [1] the following is noted: 56° C. for 5 hours; cited from earlier work.
In data set [2] the test system is spleen cell. Kind of data set: IF induction in vitro, rabbit spleen cells (determined in RK-13). Particulars: 1.0* μg/ml, control. Format: cell-based.
Data set [3] relates to spleen cell. Kind of data set: IF induction in vitro, mouse spleen cells (determined in L cells). The following applies: 1.0* μg/ml, control. It counts as cell-based.
Another data set concerns Human spleen. Nature of the data set: IF induction in vitro, human spleen (determined in FL cells). It counts as cell-based. Particulars: 1.0* μg/ml, control. As for the experimental part: A spleen cell suspension (10^7 cells/ml) was prepared by the method of hereinafter described Experiment 1 using an Eagle MEM medium (commercial product of Nissui Seiyaku K.K., Tokyo) containing a 10% calf serum (which was replaced by a 10% fetal cattle serum in the cases of human tests), each of which fraction (1 ml) was added with a given concentration of the sample and incubated overnight at a given temperature. The cultured liquor was centrifuged to separate a supernatant which was used for determining the IF activity induced. In the case of humans, the fresh spleen was collected from a person (adult deceased by external wounds) and used for the preparation of a leucocytes suspension on each occasion, and also blood was collected from the vein at the upper arm of a person (adult), from which the serum was separated to use for the preparation of a serum suspension of each occasion.
The IF activities were determined by using the cells shown in Table 5 in a similar manner to that hereinafter described in Experiment 1.

Entries after “also recorded” stand apart in the source; their conditions may differ. Where two headings read alike, the source gives them in different places.

On to carthamone, for which the IF inducing activity result in the data set with interferon is given as “no IF inducing activity”.
In the case of phytohemagglutinin, the “IF-inducing activity on heating” value in data set [1] is “inactivated”. Besides, the IF inducing activity entry was “very weak” in the data set with interferon and “extremely low” in the data set on interferon (listed as phytohemagglitinin).
Regarding Poly I:C, the “IF activity in vitro” value in the data set with spleen cell [2] is reported as 160; in the data set on spleen cell [3] it was 75; in the data set with Human spleen it was < 10.
Regarding pokeweed mitogen, the “IF-inducing activity on heating” value in data set [1] is “inactivated”. The IF inducing activity entry in the data set on interferon is given as “very weak; also recorded: extremely low”.
Consider `O=C(/C=C/c1ccc(O)cc1)C1=C(O)[C@](O)([C@@H]2O[C@H](CO)[C@@H](O)[C@H](O)[C@H]2O)C(O)=C(/C=C2/C(=O)C(C(=O)/C=C/c3ccc(O)cc3)=C(O)[C@@](O)([C@@H]3O[C@H](CO)[C@@H](O)[C@H](O)[C@H]3O)C2=O)C1=O` [carthamine], for which the IF inducing activity result in the data set with interferon is listed as “no IF inducing activity”.
In the case of neocarthamine, the IF inducing activity result in the data set with interferon was “no IF inducing activity”.

Values taken from patent US4440761A, “Interferon inducer, a process for producing the same and pharmaceutical composition containing the same” (The Kitasato Institute, priority 1980, dated 1984).
